Data reported in ChEMBL document CHEMBL6127118, “Identification of Oral Bioavailable Coumarin Derivatives as Potential AR Antagonists Targeting Prostate Cancer” (J Med Chem, 2024).
pIC50: −log10 of the molar value.

Experiments:
[1] = Apparent volume of distribution in Sprague-Dawley rat at 1 mg/kg, iv; assay type: ADME, organism-based; conditions: in vivo, read-out: Vz
[2] = AUC (0 to t) in Sprague-Dawley rat at 5 mg/kg, po; assay type: ADME, organism-based; conditions: in vivo
[3] = AUC (0 to t) in Sprague-Dawley rat at 1 mg/kg, iv; assay type: ADME, organism-based; conditions: in vivo
[4] = Cmax in Sprague-Dawley rat at 5 mg/kg, po; assay type: ADME, organism-based; conditions: in vivo
[5] = Cmax in Sprague-Dawley rat at 1 mg/kg, iv; assay type: ADME, organism-based; conditions: in vivo
[6] = Clearance in Sprague-Dawley rat at 1 mg/kg, iv; assay type: ADME, organism-based; conditions: in vivo
[7] = Half life in Sprague-Dawley rat at 1 mg/kg, iv; assay type: ADME, organism-based; conditions: in vivo
[8] = Oral bioavailability in Sprague-Dawley rat at 5 mg/kg; assay type: ADME, organism-based; conditions: in vivo
Androgen receptor = target: T1, Androgen receptor (Homo sapiens, UniProt P10275); assay: Antagonist activity at DHT-induced Androgen receptor in human LNCaP cells transfected with ARR2PB-eGFP incubated for 3 days; assay type: cell-based
T1 sequence (P10275 whole entry): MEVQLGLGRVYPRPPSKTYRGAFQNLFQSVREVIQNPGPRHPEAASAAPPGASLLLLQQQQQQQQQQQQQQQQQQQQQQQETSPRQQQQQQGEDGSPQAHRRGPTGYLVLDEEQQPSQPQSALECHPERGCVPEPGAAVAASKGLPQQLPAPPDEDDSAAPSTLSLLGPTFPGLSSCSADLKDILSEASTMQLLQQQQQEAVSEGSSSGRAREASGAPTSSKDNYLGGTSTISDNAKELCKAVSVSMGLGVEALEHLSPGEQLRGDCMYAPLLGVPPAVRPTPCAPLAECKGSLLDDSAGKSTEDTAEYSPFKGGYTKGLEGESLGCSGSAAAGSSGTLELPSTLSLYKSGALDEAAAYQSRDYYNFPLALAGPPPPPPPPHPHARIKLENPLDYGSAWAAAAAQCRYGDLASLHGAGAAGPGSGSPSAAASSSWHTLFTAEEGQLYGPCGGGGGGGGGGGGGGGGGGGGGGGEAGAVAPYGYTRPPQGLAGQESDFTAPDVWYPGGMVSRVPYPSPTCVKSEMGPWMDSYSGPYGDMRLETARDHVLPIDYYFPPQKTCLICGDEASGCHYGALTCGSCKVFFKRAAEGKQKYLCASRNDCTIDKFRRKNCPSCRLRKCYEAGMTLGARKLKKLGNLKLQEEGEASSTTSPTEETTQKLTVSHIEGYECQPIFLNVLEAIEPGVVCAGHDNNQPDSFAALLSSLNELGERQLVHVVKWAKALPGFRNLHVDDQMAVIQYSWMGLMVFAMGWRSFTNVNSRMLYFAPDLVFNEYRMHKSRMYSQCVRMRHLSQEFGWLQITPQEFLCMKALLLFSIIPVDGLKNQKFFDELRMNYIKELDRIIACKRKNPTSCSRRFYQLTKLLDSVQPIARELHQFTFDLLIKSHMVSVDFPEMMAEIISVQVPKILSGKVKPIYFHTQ

[9] = (§1) Antiproliferative activity against human GES1 cells incubated for 72 hrs by MTT assay; assay type: toxicity, cell-based; conditions: GES1 cells
CWR22R = assay: Antiproliferative activity against androgen independent-human 22Rv1 cells incubated for 72 hrs by MTT assay; conditions: 22Rv1, 72 h
LNCaP C4-2B = assay: Antiproliferative activity against androgen independent-human LNCaP C4-2B cells incubated for 72 hrs by MTT assay
LNCaP = assay: Antiproliferative activity against androgen dependent-human LNCaP cells incubated for 72 hrs by MTT assay
PC-3 = assay: Antiproliferative activity against androgen independent-human PC-3 cells incubated for 72 hrs by MTT assay; conditions: PC-3, 72 h
DU-145 = assay: Antiproliferative activity against androgen independent-human DU-145 cells incubated for 72 hrs by MTT assay; conditions: DU-145, 72 h
[10] = Inhibition of DHT-induced secreted PSA production in human LNCaP cells
GES1 = assay: as §1; assay type: toxicity, cell-based; conditions: ges1, 72 h, time 72 hrs
[11] = target: T2, Mineralocorticoid receptor (Homo sapiens, UniProt P08235); assay: Antagonist activity at aldosterone-induced Mineralocorticoid receptor (unknown origin) transfected in HEK293T cells by Dual-Luciferase Reporter assay
T2 sequence (P08235 whole entry): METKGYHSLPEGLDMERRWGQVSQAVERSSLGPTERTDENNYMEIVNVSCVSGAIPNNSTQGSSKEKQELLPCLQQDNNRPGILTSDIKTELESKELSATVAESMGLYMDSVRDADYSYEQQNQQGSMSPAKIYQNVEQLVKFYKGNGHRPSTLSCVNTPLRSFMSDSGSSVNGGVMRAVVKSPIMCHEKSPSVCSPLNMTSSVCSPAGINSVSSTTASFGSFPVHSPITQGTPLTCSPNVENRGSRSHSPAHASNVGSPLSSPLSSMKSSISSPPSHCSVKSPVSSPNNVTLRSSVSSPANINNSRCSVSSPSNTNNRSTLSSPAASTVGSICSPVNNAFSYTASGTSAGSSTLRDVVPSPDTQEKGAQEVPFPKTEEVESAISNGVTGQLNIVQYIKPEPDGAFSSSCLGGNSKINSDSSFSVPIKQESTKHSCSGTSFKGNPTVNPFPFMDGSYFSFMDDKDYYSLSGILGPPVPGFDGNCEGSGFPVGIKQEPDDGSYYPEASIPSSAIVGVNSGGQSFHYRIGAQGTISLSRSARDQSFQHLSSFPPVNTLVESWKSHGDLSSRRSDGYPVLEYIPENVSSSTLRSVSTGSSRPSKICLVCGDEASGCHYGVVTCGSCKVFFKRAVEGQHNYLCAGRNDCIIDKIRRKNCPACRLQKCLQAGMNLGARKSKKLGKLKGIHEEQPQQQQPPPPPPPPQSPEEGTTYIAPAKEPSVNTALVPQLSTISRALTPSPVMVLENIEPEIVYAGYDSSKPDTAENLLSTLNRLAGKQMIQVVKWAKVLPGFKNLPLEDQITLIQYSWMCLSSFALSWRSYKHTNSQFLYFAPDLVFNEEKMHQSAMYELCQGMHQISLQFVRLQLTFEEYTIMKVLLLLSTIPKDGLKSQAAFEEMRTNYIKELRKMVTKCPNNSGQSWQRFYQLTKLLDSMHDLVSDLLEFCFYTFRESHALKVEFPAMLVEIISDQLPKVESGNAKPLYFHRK

[12] = Antiproliferative activity against human Chang liver cells incubated for 72 hrs by MTT assay; assay type: toxicity, cell-based
[13] = Half life in Sprague-Dawley rat at 5 mg/kg, po; assay type: ADME, organism-based; conditions: in vivo
[14] = Apparent volume of distribution in Sprague-Dawley rat at 5 mg/kg, po; assay type: ADME, organism-based; conditions: in vivo
NIH3T3 = assay: Antiproliferative activity against mouse NIH3T3 cells incubated for 72 hrs by MTT assay; assay type: toxicity, cell-based; conditions: nih3t3, 72 h
[15] = Clearance in Sprague-Dawley rat at 5 mg/kg, po; assay type: ADME, organism-based; conditions: in vivo

Compound: O=c1cc(C(F)(F)F)c2ccc(NCc3ccc(Cl)cc3)cc2o1
- Vd [1]: 2.3 L/kg
- AUC(0-t) [2]: 103 ng·h/mL
- AUC(0-t) [3]: 158 ng·h/mL
- Cmax [4]: 258 ng/mL
- Cmax [5]: 395 ng/mL
- clearance [6]: 97.7 mL/min/kg
- half-life [7]: 0.27 h
- bioavailability [8]: 13%

Compound: O=C(Nc1ccc2c(C(F)(F)F)cc(=O)oc2c1)c1ccc(Br)cc1
- pIC50 (Androgen receptor): < 5.00

Compound: CCN(Cc1ccc(F)cc1)c1ccc2c(C(F)(F)F)cc(=O)oc2c1
- pIC50 (Androgen receptor): 7.08

Compound: O=c1cc(C(F)(F)F)c2ccc(NCc3ccccc3Br)cc2o1
- pIC50 (Androgen receptor): 7.00

Compound: CCN(Cc1ccc(Br)cc1)c1ccc2c(C(F)(F)F)cc(=O)oc2c1
- pIC50 (Androgen receptor): 7.00

Compound: N#Cc1ccc(CNc2ccc3c(C(F)(F)F)cc(=O)oc3c2)cc1
- pIC50 (Androgen receptor): 6.05

Compound: Cc1ccc(CNc2ccc3c(C(F)(F)F)cc(=O)oc3c2)cc1F
- pIC50 (Androgen receptor): 7.14

Compound: O=c1cc(C(F)(F)F)c2ccc(NCc3ccc(Br)cc3)cc2o1
- pIC50 (Androgen receptor): 7.38

Compound: O=c1cc(C(F)(F)F)c2cc(N3CCCC3)c(OCc3ccc(Br)cc3)cc2o1
- pIC50 (Androgen receptor): < 5.00

Compound: O=c1cc(C(F)(F)F)c2ccc(NCc3ccc(Br)c(F)c3)cc2o1
- pIC50 (Androgen receptor): 7.16

Compound: O=c1cc(C(F)(F)F)c2ccc(NCc3cccc(Br)c3)cc2o1
- pIC50 (Androgen receptor): 6.96

Compound: CCN(Cc1cc(F)ccc1F)c1ccc2c(C(F)(F)F)cc(=O)oc2c1
- pIC50 (Androgen receptor): 6.37

Compound: O=c1cc(C(F)(F)F)c2ccc(NCc3ccc(F)cc3)cc2o1
- Vd [1]: 9.26 L/kg
- AUC(0-t) [2]: 4.09 ng·h/mL
- AUC(0-t) [3]: 32.4 ng·h/mL
- IC50 at 72 h [9]: 16000 nM
- Cmax [4]: 10.8 ng/mL
- Cmax [5]: 82.1 ng/mL
- pIC50 (CWR22R): 4.62
- clearance [6]: 507 mL/min/kg
- pIC50 (Androgen receptor): 7.62
- pIC50 (LNCaP C4-2B): 5.31
- pIC50 (LNCaP): 5.72
- pIC50 (PC-3): 4.67
- half-life [7]: 0.21 h
- pIC50 (DU-145): 5.20
- bioavailability [8]: 2.5%

Compound: O=c1cc(C(F)(F)F)c2ccc(NCc3ccc(OC(F)F)cc3)cc2o1
- pIC50 (Androgen receptor): 7.17

Compound: CNC(=O)c1ccc(N2C(=S)N(c3ccc(C#N)c(C(F)(F)F)c3)C(=O)C2(C)C)cc1F [ENZALUTAMIDE]
- pIC50 [10]: 6.38
- IC50 at 72 h [9]: > 50000 nM
- Activity (GES1): Non-Toxic
- pIC50 (CWR22R): < 4.30
- pIC50 (LNCaP): 4.63
- pIC50 (PC-3): < 4.30

Compound: CCN(Cc1ccc(Cl)cc1)c1ccc2c(C(F)(F)F)cc(=O)oc2c1
- pIC50 (Androgen receptor): 7.11

Compound: O=c1cc(C(F)(F)F)c2cc([N+](=O)[O-])c(OCc3ccc(Br)cc3)cc2o1
- pIC50 (Androgen receptor): < 5.00

Compound: O=c1cc(C(F)(F)F)c2ccc(NCc3cc(F)ccc3F)cc2o1
- pIC50 (Androgen receptor): 7.47

Compound: CN(Cc1ccc(Br)cc1)c1ccc2c(C(F)(F)F)cc(=O)oc2c1
- pIC50 (Androgen receptor): 7.01

Compound: C[C@]12CCC(=O)C[C@@H]1CC[C@@H]1[C@@H]2CC[C@]2(C)[C@@H](O)CC[C@@H]12 [STANOLONE]
- pIC50 [11]: 8.91

Compound: CN(Cc1cc(F)ccc1F)c1ccc2c(C(F)(F)F)cc(=O)oc2c1
- pIC50 (Androgen receptor): 6.77

Compound: O=c1cc(C(F)(F)F)c2ccc(NCc3ccc(CO)cc3)cc2o1
- pIC50 (Androgen receptor): 7.04

Compound: CCN(CC)c1cc2c(C(F)(F)F)cc(=O)oc2cc1OCc1ccc(Br)cc1
- pIC50 (Androgen receptor): < 5.00

Compound: O=c1cc(C(F)(F)F)c2ccc(OCc3ccc(Br)cc3)cc2o1
- pIC50 (Androgen receptor): 6.23

Compound: O=c1cc(C(F)(F)F)c2ccc(NCc3ccc(O)cc3)cc2o1
- pIC50 (Androgen receptor): 6.19

Compound: O=c1cc(C(F)(F)F)c2cc(N(CC(F)(F)F)CC(F)(F)F)c(OCc3ccc(Br)cc3)cc2o1
- pIC50 (Androgen receptor): < 5.00

Compound: CN(Cc1ccc(Cl)cc1)c1ccc2c(C(F)(F)F)cc(=O)oc2c1
- Vd [1]: 27.8 L/kg
- AUC(0-t) [2]: 724 ng·h/mL
- Activity [12]: Non-Toxic
- AUC(0-t) [3]: 750 ng·h/mL
- Activity (GES1): Non-Toxic
- half-life [13]: 11.8 h
- Cmax [4]: 139 ng/mL
- Cmax [5]: 809 ng/mL
- clearance [6]: 16.3 mL/min/kg
- Vz [14]: 112.33 L/kg
- half-life [7]: 19.8 h
- Activity (NIH3T3): Non-Toxic
- CL/F [15]: 68 mL/min/kg
- bioavailability [8]: 19.3%

Compound: O=c1cc(C(F)(F)F)c2ccc(NCc3ccc(C(F)(F)F)cc3)cc2o1
- pIC50 (Androgen receptor): 6.96
